Assay results taken from ChEMBL document CHEMBL1123274, “Azasteroids: structure-activity relationships for inhibition of 5 alpha-reductase and of androgen receptor binding” (J Med Chem, 1986).

Columns and labels:
[1] = molecular target: T1, Androgen receptor (Rattus norvegicus, UniProt P15207); assay: In vitro antagonist activity against rat prostatic androgen receptor (AR)
T1 sequence (P15207 whole entry): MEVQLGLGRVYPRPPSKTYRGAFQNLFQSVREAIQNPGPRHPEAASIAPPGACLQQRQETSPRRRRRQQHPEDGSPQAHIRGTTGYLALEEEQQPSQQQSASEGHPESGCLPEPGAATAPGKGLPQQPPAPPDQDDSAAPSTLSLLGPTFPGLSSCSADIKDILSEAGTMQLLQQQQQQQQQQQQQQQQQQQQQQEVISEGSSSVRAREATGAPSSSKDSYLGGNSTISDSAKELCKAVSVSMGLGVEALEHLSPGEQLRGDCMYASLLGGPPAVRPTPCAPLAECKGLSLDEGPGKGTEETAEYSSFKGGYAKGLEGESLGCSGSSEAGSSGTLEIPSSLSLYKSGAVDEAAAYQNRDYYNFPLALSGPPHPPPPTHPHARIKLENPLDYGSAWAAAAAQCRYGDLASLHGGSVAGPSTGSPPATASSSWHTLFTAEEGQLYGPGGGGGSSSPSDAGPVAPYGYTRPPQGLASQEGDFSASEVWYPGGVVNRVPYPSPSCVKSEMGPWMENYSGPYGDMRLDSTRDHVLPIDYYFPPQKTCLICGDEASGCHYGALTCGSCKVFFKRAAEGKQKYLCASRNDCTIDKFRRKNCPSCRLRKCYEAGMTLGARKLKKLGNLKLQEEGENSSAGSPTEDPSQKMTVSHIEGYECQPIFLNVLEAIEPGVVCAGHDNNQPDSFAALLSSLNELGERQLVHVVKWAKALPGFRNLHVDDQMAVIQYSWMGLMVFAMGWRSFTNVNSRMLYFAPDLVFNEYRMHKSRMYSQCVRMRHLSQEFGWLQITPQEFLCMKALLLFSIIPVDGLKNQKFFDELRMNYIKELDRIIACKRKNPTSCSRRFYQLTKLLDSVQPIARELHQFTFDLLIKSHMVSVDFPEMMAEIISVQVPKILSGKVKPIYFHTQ

[2] = molecular target: T2, Steroid 5-alpha-reductase (Rattus norvegicus, UniProt P24008+P31214); assay: In vitro inhibitory activity against rat prostatic steroid 5-alpha-reductase; type: protein assay
T2 sequence (P24008 whole entry): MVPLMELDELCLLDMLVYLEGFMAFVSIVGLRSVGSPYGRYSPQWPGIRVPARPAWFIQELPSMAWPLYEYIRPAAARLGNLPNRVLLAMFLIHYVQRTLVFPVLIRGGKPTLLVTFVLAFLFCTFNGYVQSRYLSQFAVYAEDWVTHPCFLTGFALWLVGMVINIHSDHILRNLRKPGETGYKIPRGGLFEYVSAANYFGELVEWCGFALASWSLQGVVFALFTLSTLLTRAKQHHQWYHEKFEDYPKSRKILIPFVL
T2 sequence (P31214 whole entry): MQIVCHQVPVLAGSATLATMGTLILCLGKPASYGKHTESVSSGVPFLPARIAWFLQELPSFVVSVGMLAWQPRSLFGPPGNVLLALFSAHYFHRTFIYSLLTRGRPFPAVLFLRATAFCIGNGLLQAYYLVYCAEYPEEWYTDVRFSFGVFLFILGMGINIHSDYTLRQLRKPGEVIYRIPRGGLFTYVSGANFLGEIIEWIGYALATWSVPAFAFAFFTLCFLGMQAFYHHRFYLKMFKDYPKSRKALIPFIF

Compound	IC50 [1]	IC50 [2]
CC(CO)[C@H]1CC[C@H]2[C@@H]3CCC4N(C)C(=O)CC[C@]4(C)[C@H]3CC[C@]12C (stereo partly specified)	860 nM	3.8 nM
CCN(CC)C(=O)CCC(C)[C@H]1CC[C@H]2[C@@H]3CCC4N(C)C(=O)CC[C@]4(C)[C@H]3CC[C@]12C (stereo partly specified)	430 nM	3.4 nM
CCN(CC)C(=O)C(C)[C@H]1CC[C@H]2[C@@H]3CCC4N(C)C(=O)CC[C@]4(C)[C@H]3CC[C@]12C (stereo partly specified)	48000 nM	13 nM
CC(C)N(C(=O)[C@H]1CC[C@H]2[C@@H]3CC[C@H]4N(C)C(=O)CC[C@]4(C)[C@H]3CC[C@]12C)C(C)C	14000 nM	3.5 nM
CC(C)N(C(=O)[C@H]1CC[C@H]2[C@@H]3CC[C@@H]4N(C)C(=O)CC[C@]4(C)[C@H]3CC[C@]12C)C(C)C	> 10000 nM	1000 nM
CCN(CC)C(=O)[C@H]1CC[C@H]2[C@@H]3CC[C@H]4N(C)C(=O)C[C@H](C)[C@]4(C)[C@H]3CC[C@]12C	16000 nM	86 nM
CCOC(=O)C[C@H]1CC[C@H]2[C@@H]3CC[C@H]4N(C)C(=O)CC[C@]4(C)[C@H]3CC[C@]12C	66 nM	6.8 nM
CN1C(=O)CC[C@@]2(C)C1CC[C@H]1[C@@H]3CC[C@H](C(=O)[O-])[C@@]3(C)CC[C@@H]12.[Na+] (stereo partly specified)	9100 nM	37 nM
CCN(CC)C(=O)C[C@H]1CC[C@H]2[C@@H]3CCC4N(C)C(=O)CC[C@]4(C)[C@H]3CC[C@]12C (stereo partly specified)	560 nM	7.9 nM
COC(=O)C(C)[C@H]1CC[C@H]2[C@@H]3CCC4N(C)C(=O)CC[C@]4(C)[C@H]3CC[C@]12C (stereo partly specified)	960 nM	22 nM
CCC(C)C(=O)[C@H]1CC[C@H]2[C@@H]3CCC4NC(=O)CC[C@]4(C)[C@H]3CC[C@]12C (stereo partly specified)	> 100000 nM	1.2 nM
CN1C(=O)C=C[C@@]2(C)C1CC[C@@H]1[C@@H]2CC[C@@]2(C)[C@H]1CC[C@@]21CCCO1 (stereo partly specified)	110 nM	430 nM
CCN(CC)C(=O)[C@H]1CC[C@H]2[C@@H]3CC[C@H]4N(C)C(=O)C(=O)C[C@]4(C)[C@H]3CC[C@]12C	50000 nM	340 nM
CCN(CC)C(=O)[C@H]1CC[C@H]2[C@@H]3CC[C@H]4N(C)/C(=N/O)CC[C@]4(C)[C@H]3CC[C@]12C	540 nM	100 nM
CN1C(=O)CC[C@@]2(C)C1CC[C@H]1[C@@H]3CC[C@H](C(N)=O)[C@@]3(C)CC[C@@H]12 (stereo partly specified)	440 nM	17 nM
CCNC(=O)[C@H]1CC[C@H]2[C@@H]3CCC4N(C)C(=O)CC[C@]4(C)[C@H]3CC[C@]12C (stereo partly specified)	1100 nM	12 nM
CNC(=O)[C@H]1CC[C@H]2[C@@H]3CCC4N(C)C(=O)CC[C@]4(C)[C@H]3CC[C@]12C (stereo partly specified)	1100 nM	38 nM
CCCCCCCCNC(=O)[C@H]1CC[C@H]2[C@@H]3CCC4NC(=O)CC[C@]4(C)[C@H]3CC[C@]12C (stereo partly specified)	5200 nM	0.13 nM
CCN(CC)C(=O)[C@H]1CC[C@H]2[C@@H]3CC[C@H]4N(C)C(=O)[C@H](O)C[C@]4(C)[C@H]3CC[C@]12C	3200 nM	460 nM
C[C@]12CC[C@H]3[C@@H](CCC4NC(=O)CC[C@@]43C)[C@@H]1CC[C@@H]2C(=O)[O-].[K+] (stereo partly specified)	> 100000 nM	25 nM
CC(=O)N[C@H]1CC[C@H]2[C@@H]3CCC4N(C)C(=O)CC[C@]4(C)[C@H]3CC[C@]12C (stereo partly specified)	1400 nM	270 nM
C[C@]12C=CC(=O)NC1CC[C@@H]1[C@@H]2CC[C@@]2(C)[C@H]1CC[C@@]21CCCO1 (stereo partly specified)	1500 nM	430 nM

Compound	IC50 [1]	IC50 [2]
CC(C#N)[C@H]1CC[C@H]2[C@@H]3CCC4N(C)C(=O)CC[C@]4(C)[C@H]3CC[C@]12C (stereo partly specified)	290 nM	7.6 nM
CC(=O)[C@H]1[C@@H](C)C[C@H]2[C@@H]3CCC4N(C)C(=O)CC[C@]4(C)[C@H]3CC[C@@]21C (stereo partly specified)	8600 nM	16 nM
CCC(C)C(=O)[C@H]1CC[C@H]2[C@@H]3CCC4N(C)C(=O)CC[C@]4(C)[C@H]3CC[C@]12C (stereo partly specified)	420 nM	1.9 nM
CN1C(=O)CC[C@@]2(C)C1CC[C@H]1[C@@H]3CC[C@H](C(=O)N4CCOCC4)[C@@]3(C)CC[C@@H]12 (stereo partly specified)	10000 nM	27 nM
CCC(C)C(=O)[C@H]1CC[C@H]2[C@@H]3CCC4N(C)C(=O)C=C[C@]4(C)[C@H]3CC[C@]12C (stereo partly specified)	64 nM	120 nM
CCC(C)C(=O)[C@H]1CC[C@H]2[C@@H]3CCC4NC(=O)C=C[C@]4(C)[C@H]3CC[C@]12C (stereo partly specified)	> 100000 nM	50 nM
CCN(CC)C(=O)[C@H]1CC[C@H]2[C@@H]3CCC4N(C)C(=O)C=C(C#N)[C@]4(C)[C@H]3CC[C@]12C (stereo partly specified)	> 10000 nM	> 1000 nM
CC(C)N(C(=O)[C@H]1CC[C@H]2[C@@H]3CCC4NC(=O)C=C[C@]4(C)[C@H]3CC[C@]12C)C(C)C (stereo partly specified)	18000 nM	79 nM
CC(C)N(C(=O)[C@H]1CC[C@H]2[C@@H]3CCC4N(C)C(=O)C=C[C@]4(C)[C@H]3CC[C@]12C)C(C)C (stereo partly specified)	10000 nM	430 nM
CCN(CC)C(=O)[C@H]1CCC[C@H]2[C@@H]3CC[C@H]4N(C)C(=O)OC[C@]4(C)[C@H]3CC[C@]12C	3700 nM	500 nM
COC(CNC(=O)[C@H]1CC[C@H]2[C@@H]3CCC4N(C)C(=O)CC[C@]4(C)[C@H]3CC[C@]12C)OC (stereo partly specified)	790 nM	4.6 nM
CN1C(=O)CC[C@@]2(C)C1CC[C@H]1[C@@H]3CC[C@H](C(=O)NC(C)(C)C)[C@@]3(C)CC[C@@H]12 (stereo partly specified)	680 nM	0.56 nM
CCN1C(=O)CC[C@@]2(C)C1CC[C@@H]1[C@@H]2CC[C@@]2(C)[C@H]1CC[C@@]21CCCO1 (stereo partly specified)	13000 nM	1170 nM
C[C@]12CCC(=O)NC1CC[C@@H]1[C@@H]2CC[C@@]2(C)[C@H]1CC[C@@]21CCCO1 (stereo partly specified)	2500 nM	93 nM
CC(=O)N[C@@H]1CC[C@H]2[C@@H]3CCC4N(C)C(=O)CC[C@]4(C)[C@H]3CC[C@]12C (stereo partly specified)	40000 nM	58 nM
CCN(CC)C(=O)[C@H]1CC[C@H]2[C@@H]3CC=C4N(N)C(=O)CC[C@]4(C)[C@H]3CC[C@]12C	5400 nM	36 nM
CCN(CC)C(=O)[C@H]1CC[C@H]2[C@@H]3CC=C4N(O)C(=O)CC[C@]4(C)[C@H]3CC[C@]12C	190 nM	220 nM
CCN(CC)C(=O)[C@H]1CC[C@H]2[C@@H]3CC[C@H]4N(C)C(=O)C=C[C@]4(C)[C@H]3CC[C@]12C	450 nM	290 nM
CC(C)N(C(=O)[C@H]1CC[C@H]2[C@@H]3CC=C4NC(=O)CC[C@]4(C)[C@H]3CC[C@]12C)C(C)C	14000 nM	86 nM
CNC(=O)[C@H]1CC[C@H]2[C@@H]3CC=C4N(C)C(=O)CC[C@]4(C)[C@H]3CC[C@]12C	400 nM	140 nM
CCN(CC)C(=O)[C@H]1CC[C@H]2[C@@H]3CC[C@H]4NC(=O)C=C[C@]4(C)[C@H]3CC[C@]12C	> 100000 nM	140 nM
